Measurements reported in patent publication US7012068B2, “Co-administration of a polysaccharide with a chemotherapeutic agent for the treatment of cancer” (Pro-Pharmaceuticals, Inc., priority 2001, dated 2006).
Several values for one entry are separate records, joined by “and”; a condition that tells them apart may be missing. Equal entries are not always repeated. Where two headings read alike, the source gives them in different places.

Assays:
[1] = test system: Albino Swiss mice; details: 17 days
[2] = test system: COLO 205 human colon tumor; details: for Animals died, Total: over 8 weeks (incl. sacrificed); for Mean survival time: parametric models and stratified Kaplan-Meier estimation
[3] = test system: mice; details: cited from earlier work
[4] = test system: Albino Swiss mice; details: single i.v. LD50 dose of Adriamycin with or without galactomannan, 14 days
Description: Acute systemic toxicity of the anti-tumor drug adriamycin in the presence and absence of mannan was evaluated in Albino Swiss mice. Mice were bred as described Example 1. Experimental procedures followed approved governmental guidelines as described in Example 1.
A single dose intravenous injection of the adriamycin alone or adriamycin together with galactomannan preparations was provided via the tail vein at a dose of 0.5 mL/mouse at the doses described below in (1)-(3) and observed for clinical signs immediately after injection, and daily for the duration of the study.
There were a total of 3 groups of 5 animals each. The groups were as follows: 1) 0.9% NaCl only, 2) Adriamycin only (1.1 mg/mL) and Adriamycin (1.1 mg/mL)+galactomannan (7.2mg/mL).
0.9% NaCl was used as a diluent. Animals were weighed prior to injection and at the end of the observation period. Animals surviving at the end of the study were sacrificed by carbon dioxide inhalation.
The ability of galactomannan to reduce the toxicity of LD50 dosed of Adriamycin was measured by presence or absence of mortality in animals injected with the combination of Adriamycin and the particular polysaccharide.

[5] = 1 week after treatment initiation, q4d × 3, 5-FU 75 mg/kg, GM 120 mg/kg
[6] = 1 week after treatment initiation, q4d × 3, 5-FU 75 mg/kg, GM 120 mg/kg, 10 mice per group
[7] = 2 weeks after treatment initiation, q4d × 3, 5-FU 75 mg/kg, GM 120 mg/kg
[8] = 2 weeks after treatment initiation, q4d × 3, 5-FU 75 mg/kg, GM 120 mg/kg, 10 mice per group
[9] = 3 weeks after treatment initiation, q4d × 3, 5-FU 75 mg/kg, GM 120 mg/kg
[10] = 3 weeks after treatment initiation, q4d × 3, 5-FU 75 mg/kg, GM 120 mg/kg, 10 mice per group
[11] = 4 weeks (28 days) after treatment initiation, q4d × 3, 5-FU 75 mg/kg, GM 120 mg/kg
[12] = 4 weeks after treatment initiation, q4d × 3, 5-FU 75 mg/kg, GM 120 mg/kg, 10 mice per group
[13] = 5 weeks (35 days) after treatment initiation, q4d × 3, 5-FU 75 mg/kg, GM 120 mg/kg
[14] = 5 weeks after treatment initiation, q4d × 3, 5-FU 75 mg/kg, GM 120 mg/kg, 10 mice per group
[15] = 6 weeks after treatment initiation (incl. sacrificed), q4d × 3, 5-FU 75 mg/kg, GM 120 mg/kg, 10 mice per group
[16] = 6 weeks after treatment initiation, q4d × 3, 5-FU 75 mg/kg, GM 120 mg/kg
[17] = 7 weeks after treatment initiation (incl. sacrificed), q4d × 3, 5-FU 75 mg/kg, GM 120 mg/kg, 10 mice per group
[18] = 7 weeks after treatment initiation, q4d × 3, 5-FU 75 mg/kg, GM 120 mg/kg
[19] = 8 weeks after treatment initiation (incl. sacrificed), q4d × 3, 5-FU 75 mg/kg, GM 120 mg/kg, 10 mice per group
[20] = Day 0 after treatment initiation, q4d × 3, 5-FU 75 mg/kg, GM 120 mg/kg
[21] = Day 3 after treatment initiation, q4d × 3, 5-FU 75 mg/kg, GM 120 mg/kg
[22] = i.v. q4d × 3, 5-FU 75 mg/kg, GM 120 mg/kg
[23] = i.v. q4d × 3, 5-FU 75 mg/kg, GM 120 mg/kg, 10 mice per group
[24] = q4d × 3, 5-FU 75 mg/kg, GM 120 mg/kg, 10 mice per group
[25] = q4d × 3, 5-FU 75 mg/kg, GM 120 mg/kg
[26] = GM 60 mg/kg q1d × 5, 10 mice per group

In the case of `O=c1[nH]cc(F)c(=O)[nH]1` [5-FU, 5-fluorouracil, reference compound], the “death rate (mice dying / mice in group)” value ([1]; single i.v. 5-FU 420 mg/kg with or without galactomannan) is reported as 3/5, the Median tumor weight [2, 5] is reported as 198 mg and the Animals died [2, 6] is reported as 1. The Median tumor weight [2, 7] was 245 mg, the Animals died [2, 8] was 2 and the Median tumor weight [2, 9] was 352 mg. It also gave an Animals died [2, 10] of 0, a Median tumor weight [2, 11] of 527 mg and an Animals died [2, 12] of 0. For the same compound, the “deaths out of ten mice within 10 days after the treatment initiation” value ([2]; 5-FU 375 mg/kg/dose q4d×3, alone or with galactomannan 120 mg/kg/dose) was “nine”, the Median tumor weight [2, 13] was 990 mg and the Animals died [2, 14] was 1. For the same compound, the Animals died [2, 15] was 0, the Median tumor weight [2, 16] was 1345 mg and the Animals died [2, 17] was 0. For the same compound, the Median tumor weight [2, 18] was 1881 mg, the Animals died [2, 19] was 1 and the Median tumor weight [2, 20] was 101 mg. For the same compound, the Median tumor weight [2, 21] was 135 mg, the “Median days to 2× doubling of tumor weight” value (from here on “Median days to 2× doubling”) [2, 22] was 23.7 days and the “Animals with small tumors (20% and less) compared to median of untreated after 4-8 weeks of treatment” value (shortened to “Animals with small tumors (20% and less)”) [2, 23] was 1. For the same compound, the “treatment-related (nonspecific) deaths within two weeks” value ([2]; out of ten mice, q4d×3, 5-FU 75 mg/kg/dose, galactomannan 120 mg/kg/dose) was “three”, the “Animals died, Total” value [2, 24] was 5 and the “Mean survival time” value [2, 25] was 23.7 days. The LD50 ([3]; 5-FU, single dose in mice, Physician's Desk Reference 48th Edition) was 340 mg/kg.
With galactomannan [GM] the “Signs of Toxicity (summary of clinical observations)” value ([1]; individual male mouse, single i.v. 0.5 mL/mouse: 5-FU 17 mg/mL, GM 4.73 mg/mL, 5-FU 17 mg/mL + GM 9.06 mg/mL) was “None”, the Median tumor weight ([2]; 1 week after treatment initiation, GM 60 mg/kg q1d × 5) was 216 mg and the Animals died ([2]; 1 week after treatment initiation, GM 60 mg/kg q1d × 5, 10 mice) was 1. The Median tumor weight [2, 5] was 258 mg, the Animals died [2, 6] was 0 and the Median tumor weight ([2]; 2 weeks after treatment initiation, GM 60 mg/kg q1d × 5) was 319 mg. It also gave an Animals died ([2]; 2 weeks after treatment initiation, GM 60 mg/kg q1d × 5, 10 mice) of 0, a Median tumor weight [2, 7] of 320 mg and an Animals died [2, 8] of 0. It also gave a Median tumor weight ([2]; 3 weeks after treatment initiation, GM 60 mg/kg q1d × 5) of 512 mg, an Animals died ([2]; 3 weeks after treatment initiation, GM 60 mg/kg q1d × 5, 10 mice) of 0 and a Median tumor weight [2, 9] of 629 mg. The Animals died [2, 10] was 0, the Median tumor weight [2, 11] was 959 mg and the Median tumor weight ([2]; 4 weeks after treatment initiation, GM 60 mg/kg q1d × 5) was 690 mg. The Animals died ([2]; 4 weeks after treatment initiation, GM 60 mg/kg q1d × 5, 10 mice) was 1, the Animals died [2, 12] was 0 and the Median tumor weight [2, 13] was 1692 mg. The Median tumor weight ([2]; 5 weeks after treatment initiation, GM 60 mg/kg q1d × 5) was 1116 mg, the Animals died ([2]; 5 weeks after treatment initiation, GM 60 mg/kg q1d × 5, 10 mice) was 0 and the Animals died [2, 14] was 0. It also gave an Animals died [2, 15] of 1, a Median tumor weight ([2]; 6 weeks after treatment initiation, GM 60 mg/kg q1d × 5) of 1421 mg and an Animals died ([2]; 6 weeks after treatment initiation, GM 60 mg/kg q1d × 5, 10 mice) of 0. For the same compound, the Median tumor weight [2, 16] was 1690 mg, the Animals died ([2]; 7 weeks after treatment initiation (incl. sacrificed), GM 60 mg/kg q1d × 5, 10 mice) was 1 and the Animals died [2, 17] was 0. The Median tumor weight ([2]; 7 weeks after treatment initiation, GM 60 mg/kg q1d × 5) was 1152 mg, the Median tumor weight [2, 18] was 1764 mg and the Median tumor weight ([2]; 8 weeks (56 days) after treatment initiation, GM 60 mg/kg q1d × 5) was 1152 mg. The Median tumor weight ([2]; 8 weeks (56 days) after treatment initiation, q4d × 3, 5-FU 75 mg/kg, GM 120 mg/kg) was 1813 mg, the Animals died [2, 19] was 1 and the Animals died ([2]; 8 weeks after treatment initiation, GM 60 mg/kg q1d × 5, 10 mice) was 0. For the same compound, the Median tumor weight ([2]; Day 0 after treatment initiation, GM 60 mg/kg q1d × 5) was 117 mg, the Median tumor weight [2, 20] was 100 mg and the Median tumor weight ([2]; Day 3 after treatment initiation, GM 60 mg/kg q1d × 5) was 162 mg. The Median tumor weight [2, 21] was 162 mg, the “Median days to 2× doubling” value ([2]; GM 60 mg/kg q1d × 5) was 20.0 days and the “Animals with small tumors (20% and less)” value [2, 26] was 0. For the same compound, the “Tumor complete regression after 56 days of treatment” value [2, 26] was 0, the “Median days to 2× doubling” value [2, 22] was 15.5 days and the “Animals with small tumors (20% and less)” value [2, 23] was 1. For the same compound, the “Tumor complete regression after 56 days of treatment” value [2, 23] was 0, the “Animals died, Total” value ([2]; GM 60 mg/kg q1d × 5, 10 mice) was 3 and the “Animals died, Total” value [2, 24] was 2. The “Mean survival time” value ([2]; GM 60 mg/kg q1d × 5) was 18.1 days and the “Mean survival time” value [2, 25] was 19.2 days.
In the case of `COc1cccc2c1C(=O)c1c(O)c3c(c(O)c1C2=O)C[C@@](O)(C(=O)CO)C[C@@H]3O[C@H]1C[C@H](N)[C@H](O)[C@H](C)O1` [Adriamycin, doxorubicin], the “mortality (mice died / mice in group)” value [4] is given as “Three out of 5 and 3 out of 5”, the “mortality (mice died / mice in group)” value ([4]; listed as adriamycin) is given as 3/5 and the LD50 ([3]; Adriamycin, i.v. in mice, The Merck Index, 12th Edition) is given as 21.1 mg/kg.
